# In patent US6355799B1, “Substituted benzene compounds, process for their preparation, and herbicidal and defoliant compositions containing them” (ISK Americas Incorporated, priority 1997, dated 2002):
# Legend:
# Type in all cases: in vivo
# [1] = test system: redroot pigweed (Amaranthus retroflexus, AMARE); test: Pre-emerge test, greenhouse herbicide activity screening; conditions: pre-emerge, phytotoxicity rating 0-100 at 14 days after application
# Method in brief: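 Herbicidal damage is scored 0 (none) to 100 (complete plant death) two weeks after a simulated field spray. Rates span 15–1000 g ai/ha, delivered in acetone at 187 l/ha. For post-emergence treatments, plants have 2–3 leaves and the spray carries 0.25% v/v non-ionic surfactant.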
# [2] = test system: barnyardgrass (Echinochloa crus-galli, ECHCG); test: as above; conditions: pre-emerge, phytotoxicity rating 0-100 at 14 days after application
# Method in brief: (§1)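 Plants grown in 10 cm pots of sandy loam mix received acetone-dissolved compounds through a moving flat-fan nozzle. Doses ranged from 15 to 1000 g ai/ha. Pre-emerge pots were seeded one day earlier, post-emerge pots 8–21 days earlier. Fourteen days on, each pot was graded 0–100 for damage.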
# [3] = test system: green foxtail (Setaria viridis, SETVI); test: as above; conditions: pre-emerge, phytotoxicity rating 0-100 at 14 days after application
# Method in brief: as §1
# [4] = test system: ivyleaf morningglory (Ipomoea hederacea, IPOHE); test: as above; conditions: pre-emerge, phytotoxicity rating 0-100 at 14 days after application
# Method in brief: as §1
# [5] = test system: johnsongrass (Sorghum halepense, SORHA); test: as above; conditions: pre-emerge, phytotoxicity rating 0-100 at 14 days after application
# Method in brief: as §1
# [6] = test system: lambsquarters (Chenopodium album, CHEAL); test: as above; conditions: pre-emerge, phytotoxicity rating 0-100 at 14 days after application
# Method in brief: as §1
# [7] = test system: large crabgrass (Digitaria sanguinalis, DIGSA); test: as above; conditions: pre-emerge, phytotoxicity rating 0-100 at 14 days after application
# Method in brief: as §1
# [8] = test system: sicklepod (Cassia obtusifolia, CASOB); test: as above; conditions: pre-emerge, phytotoxicity rating 0-100 at 14 days after application
# Method in brief: as §1
# [9] = test system: velvetleaf (Abutilon theophrasti, ABUTH); test: as above; conditions: pre-emerge, phytotoxicity rating 0-100 at 14 days after application
# Method in brief: as §1
# [10] = test system: field corn (Zea mays L., var. Dekalb 535, CORN); test: Pre-emerge test, crop safety; conditions: crop damage, pre-emerge, phytotoxicity rating 0-100 at 14 days after application
# Method in brief: (§2)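 Applied at 15–1000 g ai/ha from acetone in 187 l/ha spray volume. Post-emergence applications included 0.25% v/v non-ionic surfactant and reached plants sown 8–21 days before. Pre-emergence applications were incorporated by surface watering. Efficacy or crop damage was rated on a 0–100 scale after 14 days.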
# [11] = test system: upland rice (Oryza sp., var. Tebonnet, RICE); test: Pre-emerge test, crop safety; conditions: crop damage, pre-emerge, phytotoxicity rating 0-100 at 14 days after application
# Method in brief: as §2
# [12] = test system: barnyardgrass (Echinochloa crus-galli, ECHCG); test: Post-emerge test, greenhouse herbicide activity screening; conditions: post-emerge, phytotoxicity rating 0-100 at 14 days after application
# Method in brief: (§3)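 Compounds in acetone were track-sprayed at 15-1000 g ai/ha (187 l/ha) on sandy loam pots: pre-emerge one day after seeding, post-emerge at 2-3 leaf stage with 0.25% v/v non-ionic surfactant. Phytotoxicity was rated 14 days later on a 0 (no damage) to 100 (complete death) scale.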
# [13] = test system: green foxtail (Setaria viridis, SETVI); test: as above; conditions: post-emerge, phytotoxicity rating 0-100 at 14 days after application
# Method in brief: as §3
# [14] = test system: ivyleaf morningglory (Ipomoea hederacea, IPOHE); test: as above; conditions: post-emerge, phytotoxicity rating 0-100 at 14 days after application
# Method in brief: as §3
# [15] = test system: johnsongrass (Sorghum halepense, SORHA); test: as above; conditions: post-emerge, phytotoxicity rating 0-100 at 14 days after application
# Method in brief: as §3
# [16] = test system: lambsquarters (Chenopodium album, CHEAL); test: as above; conditions: post-emerge, phytotoxicity rating 0-100 at 14 days after application
# Method in brief: as §3
# [17] = test system: large crabgrass (Digitaria sanguinalis, DIGSA); test: as above; conditions: post-emerge, phytotoxicity rating 0-100 at 14 days after application
# Method in brief: as §3
# [18] = test system: redroot pigweed (Amaranthus retroflexus, AMARE); test: as above; conditions: post-emerge, phytotoxicity rating 0-100 at 14 days after application
# Method in brief: as §3
# [19] = test system: sicklepod (Cassia obtusifolia, CASOB); test: as above; conditions: post-emerge, phytotoxicity rating 0-100 at 14 days after application
# Method in brief: as §3
# [20] = test system: velvetleaf (Abutilon theophrasti, ABUTH); test: as above; conditions: post-emerge, phytotoxicity rating 0-100 at 14 days after application
# Method in brief: as §3
# [21] = test system: field corn (Zea mays L., var. Dekalb 535, CORN); test: Post-emerge test, crop safety; conditions: post-emerge, crop damage rating 0-100 at 14 days after application
# Method in brief: (§4)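 Each test used a mechanized track sprayer delivering 187 l/ha of acetone solution at 15–1000 g ai/ha. Post-emerge foliage at 2–3 leaves was treated with added 0.25% v/v non-ionic surfactant and bottom-watered only. Injury was assessed on day 14, where 100 means total kill.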
# [22] = test system: upland rice (Oryza sp., var. Tebonnet, RICE); test: Post-emerge test, crop safety; conditions: post-emerge, crop damage rating 0-100 at 14 days after application
# Method in brief: as §4
compound,measurement,setting,value
C#CCOc1c(Cl)cc(F)c(N2C(=O)C3=C(CCCC3)C2=O)c1NC(=O)c1ccc(F)cc1F [8-13],Pre-emerge Herbicidal Activity AMARE,[1]; rate 63 g ai/ha,50
same,Pre-emerge Herbicidal Activity AMARE,[1]; rate 125 g ai/ha,70
same,Pre-emerge Herbicidal Activity ECHCG,[2]; rate 63 g ai/ha,0
same,Pre-emerge Herbicidal Activity ECHCG,[2]; rate 125 g ai/ha,30
same,Pre-emerge Herbicidal Activity SETVI,[3]; rate 63 g ai/ha,20
same,Pre-emerge Herbicidal Activity SETVI,[3]; rate 125 g ai/ha,40
same,Pre-emerge Herbicidal Activity IPOHE,[4]; rate 63 g ai/ha,0
same,Pre-emerge Herbicidal Activity IPOHE,[4]; rate 125 g ai/ha,0
same,Pre-emerge Herbicidal Activity SORHA,[5]; rate 63 g ai/ha,0
same,Pre-emerge Herbicidal Activity SORHA,[5]; rate 125 g ai/ha,30
same,Pre-emerge Herbicidal Activity CHEAL,[6]; rate 63 g ai/ha,100
same,Pre-emerge Herbicidal Activity CHEAL,[6]; rate 125 g ai/ha,70
same,Pre-emerge Herbicidal Activity DIGSA,[7]; rate 63 g ai/ha,0
same,Pre-emerge Herbicidal Activity DIGSA,[7]; rate 125 g ai/ha,40
same,Pre-emerge Herbicidal Activity CASOB,[8]; rate 63 g ai/ha,0
same,Pre-emerge Herbicidal Activity CASOB,[8]; rate 125 g ai/ha,0
same,Pre-emerge Herbicidal Activity ABUTH,[9]; rate 63 g ai/ha,90
same,Pre-emerge Herbicidal Activity ABUTH,[9]; rate 125 g ai/ha,100
same,Pre-emerge Herbicidal Activity CORN,[10]; rate 63 g ai/ha,0
same,Pre-emerge Herbicidal Activity CORN,[10]; rate 125 g ai/ha,0
same,Pre-emerge Herbicidal Activity RICE,[11]; rate 63 g ai/ha,10
same,Pre-emerge Herbicidal Activity RICE,[11]; rate 125 g ai/ha,10
same,Post-emerge Herbicidal Activity ECHCG,[12]; 63 g ai/ha,20
same,Post-emerge Herbicidal Activity ECHCG,[12]; 125 g ai/ha,40
same,Post-emerge Herbicidal Activity SETVI,[13]; 63 g ai/ha,30
same,Post-emerge Herbicidal Activity SETVI,[13]; 125 g ai/ha,30
same,Post-emerge Herbicidal Activity IPOHE,[14]; 63 g ai/ha,50
same,Post-emerge Herbicidal Activity IPOHE,[14]; 125 g ai/ha,60
same,Post-emerge Herbicidal Activity SORHA,[15]; 63 g ai/ha,10
same,Post-emerge Herbicidal Activity SORHA,[15]; 125 g ai/ha,20
same,Post-emerge Herbicidal Activity CHEAL,[16]; 63 g ai/ha,90
same,Post-emerge Herbicidal Activity CHEAL,[16]; 125 g ai/ha,90
same,Post-emerge Herbicidal Activity DIGSA,[17]; 63 g ai/ha,20
same,Post-emerge Herbicidal Activity DIGSA,[17]; 125 g ai/ha,10
same,Post-emerge Herbicidal Activity AMARE,[18]; 63 g ai/ha,100
same,Post-emerge Herbicidal Activity AMARE,[18]; 125 g ai/ha,100
same,Post-emerge Herbicidal Activity CASOB,[19]; 63 g ai/ha,30
same,Post-emerge Herbicidal Activity CASOB,[19]; 125 g ai/ha,50
same,Post-emerge Herbicidal Activity ABUTH,[20]; 63 g ai/ha,100
same,Post-emerge Herbicidal Activity ABUTH,[20]; 125 g ai/ha,100
same,Post-emerge Herbicidal Activity CORN,[21]; 63 g ai/ha,10
same,Post-emerge Herbicidal Activity CORN,[21]; 125 g ai/ha,40
same,Post-emerge Herbicidal Activity RICE,[22]; 63 g ai/ha,30
same,Post-emerge Herbicidal Activity RICE,[22]; 125 g ai/ha,70
